Tests used:
[1] = test system: peripheral leukocytes and lymphocytes; details: conventional cytostatics and immunosuppressive agents; cited from earlier work
[2] = Water solubility; type: physicochemical; details: dihydrochloride
Description: Using a solution of HCl-gas in ethanol the compound can be converted to dihydrochloride, which is 4% water soluble.

[3] = test system: Electro-convulsion; test: Maximal electroconvulsion test; type: in vivo; details: Mus musculus, po; i.g., mice

SMILES	reattainment of normal hematological findings after discontinuation [1]	other results
Cn1cnc([N+](=O)[O-])c1Sc1ncnc2nc[nH]c12 [Azathioprine]	No comparable short-term extensive reattainment of normal hematological findings	
CN(Cc1cnc2nc(N)nc(N)c2n1)c1ccc(C(=O)N[C@@H](CCC(=O)O)C(=O)O)cc1 [methotrexate]	No comparable short-term extensive reattainment of normal hematological findings	
Cl.Cl.Nc1ccc(C(=O)Nc2ccccc2N)cc1 [dihydrochloride, 4-Amino-N-(2'aminophenyl)-benzamide-dihydrochloride]		solubility [2]: 40 mg/mL
O=P1(N(CCCl)CCCl)NCCCO1 (centres unmarked) [cyclophosphamide]	No comparable short-term extensive reattainment of normal hematological findings	
O=C1NC(=O)C(c2ccccc2)(c2ccccc2)N1 [Diphenylhydantoin, reference compound]		ED50 [3]: 22.5 mg/kg
